Test results published in US12661353B2, “SPT5 inhibitors and uses thereof” (Yeda Research and Development Co. Ltd., priority 2020, dated 2026).

Key:
Format in all cases: cell-based, human
GDF15 = GDF15 mRNA levels, HeLa, qPCR
Description: RNA analysis—Total RNA was extracted using Tri-reagent (Bio-Lab Chemicals) and Direct-Zol™ RNA MiniPrep kit (Zymo Research). Following, cDNA was synthesized from […] of total RNA using a High-Capacity cDNA Reverse Transcription Kit (ABI, Thermo Fisher Scientific). cDNA samples were analyzed by quantitative PCR (qPCR) in a ViiA 7 Real-Time PCR System using Fast qPCRBIO SYBR Green Mix (PCR Biosystems).
GDF15 is a member of the TGF-β superfamily and is associated with regulation of body-weight and food intake in humans and rodents (Emmerson et al., 2017; Hsu et al., 2017; Mullican et al., 2017; Tsai et al., 2018; Yang et al., 2017). […] To test this possibility, GDF15 expression was analyzed following 2 and 24 hours treatment with SPI-21. […] The dramatic elevation of GDF15 was also seen by other identified SPIs (FIG. 4G) and was not limited to HeLa cells but was also detected in other human and mouse cell lines (FIG. 4H). Thus, the utilization of SPIs enables distinguishing between temporary and constitutive Spt5-regulated genes and unveiled a previously unknown but significant role of Spt5 in the control of an important mammalian metabolic pathway via GDF15.

[1] = tested on: TNF-α-induced genes / expressed genes; assay: RNA-seq of 4sU-labeled newly synthesized RNA, with or without TNFα; conditions: 4sU labeling
Description: Cells treated with DMSO or SPI-21 with or without TNFα were metabolically labeled with […] and then RNA was extracted, biotinylated and the newly synthesized transcripts were isolated with streptavidin magnetic beads and subjected to RNA-Seq. Reads were mapped and differentially expressed genes were determined.
(§1) High-throughput sequencing of the total, labeled and Run-On transcripts (RNA-Seq and Gro-seq)—_The RNA-Seq libraries were prepared by the Genomics unit in The Nancy and Stephen Grand Israel National Center for Personalized Medicine (G-INCPM, Weizmann Institute of Science). Samples from 2-hour SPI treatment were prepared using in-house mRNA Seq protocol and polyA capturing and those from 24-hpur and 4sU treatments were prepared using the same protocol w/o PolyA capture (with random hexamers), and sequenced using an Illumina HiSeq 2500 system yielding about 30M SE reads of 61 bases. The GRO-seq RNA samples were reverse transcribed and amplified (15 cycles) using in-house mRNA Seq protocol w/o PolyA capture (with random hexamers) and sequenced in one lane using an Illumina HiSeq High Output (480 million reads, yielding more than 100M SE reads of 47 bases per sample). Each RNA-Seq analysis was carried out using two independent replicates.
(§2) RNA-Seq and GRO-seq Bioinformatics analysis—_For the analysis of the 24 h, 4sU and GRO-seq data, we used the RNA-Seq pipeline of UTAP (Kohen et al. 2019) to determine the differentially expressed genes. For the 2-hour data, reads were mapped to the H. sapiens GRCh38 reference genome using STAR (Dobin et al., 2013) and expression levels for each gene were quantified using htseq-count (Anders et al., 2015). Differentially expressed genes were identified using DESeq2 (Love et al., 2014). […] The reads coverage was calculated using bed files containing the desired genomic regions and orientation (awk command) and the bedtools coverage tool (Quinlan et al., 2010).
To validate that the effects of SPIs are at the transcriptional level, cellular RNA was metabolically labeled with 4-thiouridine (4sU) for 2 hours in the presence of DMSO or SPI-21 in the presence or absence of TNFα. Newly synthesized labeled RNA was then purified and subjected to RNA-seq. […] Thus, the observed reduction in TNFα activation by SPI-21 is highly specific and is a consequence of diminished transcription.

[2] = tested on: replication-dependent histone genes; assay: RNA-seq after 24-h treatment: replication-dependent histone genes; set-up: HIST1H2AH level, RNA-seq / HIST1H2AI level, RNA-seq / HIST1H2AK level, RNA-seq / HIST1H2AL level, RNA-seq / HIST1H2BF level, RNA-seq / HIST1H3A level, RNA-seq / HIST1H3B level, RNA-seq / HIST1H3D level, RNA-seq: scale not given here; conditions: SPI-21 24 h
Description: as §1, §2
Since the RNA-seq following treatment with SPI-21 detects only polyadenylated transcripts and the treatment was effected for 2 hours, during which only a fraction of cells is in S-phase, an effect on histone genes was not found. Thus, to investigate further the regulation of histone genes by Spt5 using the identified SPIs, cells were treated for 24 hours with SPI-21 or SPI-18, to allow all cells to pass S-phase at least once. Following, mRNA was extracted and cDNA was prepared using random hexamers and the levels of 4 histone genes were determined. […] Spt5 requirement for expression of histone genes cannot be explained by a positive effect on elongation or mRNA processing since histone genes are very short and are intron-less. […] To resolve the discrepancy between the effect of Spt5 inhibition on steady-state levels and synthesis rate, the possibility that Spt5 is required for the processing of histone mRNAs was considered. In addition to the conserved stem-loop, histone genes have a canonical polyadenylation signal downstream of the stem-loop structure (FIG. 5B). It was therefore considered that Spt5 controls the choice between 3′ end processing via the stem-loop pathway or the polyadenylation pathway of histone pre-mRNAs. To this end, cDNA prepared by random hexamer and Poly-T the ratio between total and poly-A tailed histone genes was determined. […] Thus, the reduction in the histone gene expression upon Spt5 inhibition may be associated, at least in part, to a defect in 3′ end processing.

With `COc1ccc(C=CC(=O)c2cc(O)ccc2O)cc1` [SPI-21] the GDF15 up-regulation (GDF15; 2 hours treatment) was “moderately up-regulated”, the GDF15 up-regulation (GDF15; 24 hours treatment) was “about 100 fold” and the “fraction of TNF-α-induced genes downregulated” value ([1]; TNFα) was 61%. The “number of TNF-α-induced genes (of 467) downregulated” value ([1]; TNFα) was 285 genes, the “fraction of expressed genes downregulated” value ([1]; basal conditions) was 2.2% and the “number of expressed genes (of 13,890) downregulated” value ([1]; basal conditions) was 301 genes. The “HIST1H1B level, RNA-seq” value [2] was 0.4, the “HIST1H1E level, RNA-seq” value [2] was 0.5 and the “HIST1H2AG level, RNA-seq” value [2] was 0.4. For the same compound, the “HIST1H2AH level, RNA-seq” value [2] was 0.5, the “HIST1H2AI level, RNA-seq” value [2] was 0.5 and the “HIST1H2AK level, RNA-seq” value [2] was 0.6. For the same compound, the “HIST1H2AL level, RNA-seq” value [2] was 0.5, the “HIST1H2BF level, RNA-seq” value [2] was 0.5 and the “HIST1H3A level, RNA-seq” value [2] was 0.4. The “HIST1H3B level, RNA-seq” value [2] was 0.5, the “HIST1H3D level, RNA-seq” value [2] was 0.4 and the “HIST1H3F level, RNA-seq” value [2] was 0.5. The “HIST1H3G level, RNA-seq” value [2] was 0.5, the “HIST1H4A level, RNA-seq” value [2] was 0.5 and the “HIST1H4B level, RNA-seq” value [2] was 0.5. For the same compound, the “HIST1H4C level, RNA-seq” value [2] was 0.7, the “HIST1H4D level, RNA-seq” value [2] was 0.5 and the “HIST1H4H level, RNA-seq” value [2] was 0.7. The “HIST2H2AC level, RNA-seq” value [2] was 0.5 and the “HIST2H3D level, RNA-seq” value [2] was 0.3.
